Literature values, collected in US20130331575A1, “Method for resolution of 4-((1R,3S)-6-chloro-3-phenyl-indan-1-yl)-1,2,2-trimethyl-piperazine and 1-((1R,3S)-6-chloro-3-phenyl-indan-1-yl)-3,3-dimethyl-piperazine” (priority 2011, published 2013).

Tests used:
[1] = molecular target: 5-HT2 (Homo sapiens, UniProt P28223)
[2] = test system: α1 adrenoceptors
[3] = test system: D1 and D2; conditions: in vivo
[4] = molecular target: D1 (Homo sapiens, UniProt P21728); conditions: in vitro
[5] = molecular target: D2 (Homo sapiens, UniProt P14416); conditions: in vitro
D2, sequence (P14416 whole entry): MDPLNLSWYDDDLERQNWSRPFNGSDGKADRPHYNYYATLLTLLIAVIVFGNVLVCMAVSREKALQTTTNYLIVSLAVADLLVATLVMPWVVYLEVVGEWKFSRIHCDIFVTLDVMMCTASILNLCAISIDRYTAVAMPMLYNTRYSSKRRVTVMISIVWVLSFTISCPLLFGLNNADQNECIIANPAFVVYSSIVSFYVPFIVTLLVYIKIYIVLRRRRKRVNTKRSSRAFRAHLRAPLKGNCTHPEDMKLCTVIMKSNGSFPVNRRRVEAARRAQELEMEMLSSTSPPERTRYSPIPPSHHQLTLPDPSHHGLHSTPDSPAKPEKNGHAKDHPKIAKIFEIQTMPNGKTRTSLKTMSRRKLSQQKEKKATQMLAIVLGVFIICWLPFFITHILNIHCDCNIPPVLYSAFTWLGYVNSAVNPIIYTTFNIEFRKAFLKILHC

D1, sequence (P21728 whole entry): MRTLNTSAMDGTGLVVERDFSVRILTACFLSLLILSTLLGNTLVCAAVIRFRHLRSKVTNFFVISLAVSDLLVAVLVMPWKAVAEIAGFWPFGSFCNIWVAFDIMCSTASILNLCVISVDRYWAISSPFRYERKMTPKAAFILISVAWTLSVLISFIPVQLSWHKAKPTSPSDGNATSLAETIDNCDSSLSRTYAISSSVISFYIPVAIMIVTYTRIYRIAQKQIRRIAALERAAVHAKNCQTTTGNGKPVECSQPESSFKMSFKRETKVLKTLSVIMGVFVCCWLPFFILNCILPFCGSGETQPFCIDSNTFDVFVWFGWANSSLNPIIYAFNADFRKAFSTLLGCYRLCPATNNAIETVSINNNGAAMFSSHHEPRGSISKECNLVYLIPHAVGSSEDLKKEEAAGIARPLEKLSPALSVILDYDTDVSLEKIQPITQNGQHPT
5-HT2, sequence (P28223 whole entry, species assumed): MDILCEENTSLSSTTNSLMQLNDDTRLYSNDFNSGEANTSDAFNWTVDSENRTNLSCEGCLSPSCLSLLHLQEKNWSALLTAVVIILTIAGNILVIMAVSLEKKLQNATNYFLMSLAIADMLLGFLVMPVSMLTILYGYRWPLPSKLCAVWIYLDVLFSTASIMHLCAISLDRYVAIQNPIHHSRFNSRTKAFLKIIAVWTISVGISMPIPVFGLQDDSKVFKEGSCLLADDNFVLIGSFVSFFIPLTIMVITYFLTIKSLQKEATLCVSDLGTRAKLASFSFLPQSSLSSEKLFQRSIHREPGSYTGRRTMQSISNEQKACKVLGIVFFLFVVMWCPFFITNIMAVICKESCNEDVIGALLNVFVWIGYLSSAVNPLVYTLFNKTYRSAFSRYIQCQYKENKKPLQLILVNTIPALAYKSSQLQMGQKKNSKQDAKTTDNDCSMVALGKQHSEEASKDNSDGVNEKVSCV

Q: For `CN1CCN([C@@H]2C[C@@H](c3ccccc3)c3ccc(Cl)cc32)CC1(C)C` [Compound (I), 4-((1R,3S)-6-chloro-3-phenyl-indan-1-yl)-1,2,2-trimethyl-piperazine], which 5-HT2 antagonist potency [1] is on record?
A: potent 5-HT2 antagonist

Q: What about the “affinity for α1 adrenoceptors” value [2] of the same molecule?
A: high affinity

Q: And the “relative potency as D1 and D2 antagonist” value [3]?
A: equipotent as D1 and D2 antagonist

Q: What about the D1 antagonist potency [4] of the same molecule?
A: potent

Q: And the “D1 versus D2 selectivity” value [4]?
A: some D1 selectivity

Q: And the D2 antagonist potency [5]?
A: potent
